Tests used:
MK2 [1] = target: T1, MK2 (Homo sapiens, UniProt P49137); assay: MK2 degradation in human SW1353 cells (MSD, 24 h); format: cell-based; set-up: endogenous in cells; host or cells: SW-1353 (ATCC HTB-94); key to MK2 MSD SW1353 degradation 24 h GMean External Abs DC50: A (<0.001 μM); B (0.001-0.01 μM); C (0.01-0.1 μM); D (>0.1 μM); —: “-”=not tested or inactive; key to MK2 MSD SW 1353 24 h Dmax %: —: “-”=not tested or inactive; details: for Dmax: read-out: MK2 MSD SW 1353 24 h Dmax %; for DC50: read-out: MK2 MSD SW1353 degradation 24 h GMean External Abs DC50
T1 sequence (P49137 whole entry): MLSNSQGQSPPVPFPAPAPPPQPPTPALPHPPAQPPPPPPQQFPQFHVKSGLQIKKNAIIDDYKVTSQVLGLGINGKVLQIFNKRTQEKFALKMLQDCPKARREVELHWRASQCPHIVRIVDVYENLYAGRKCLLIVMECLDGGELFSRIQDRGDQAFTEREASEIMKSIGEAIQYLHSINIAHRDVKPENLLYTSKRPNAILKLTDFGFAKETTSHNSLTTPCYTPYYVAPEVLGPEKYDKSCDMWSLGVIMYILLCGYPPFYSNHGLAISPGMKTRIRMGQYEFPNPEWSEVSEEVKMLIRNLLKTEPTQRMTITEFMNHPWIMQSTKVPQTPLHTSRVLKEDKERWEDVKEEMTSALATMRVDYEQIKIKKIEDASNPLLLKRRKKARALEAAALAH
Method in brief: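 DC50 derived by 4-parameter logistic fit, with DMSO-treated signal as top and lysis-buffer signal as bottom. Remaining MK2 was measured by MSD electrochemiluminescent sandwich assay in RIPA lysates of human SW1353 cells exposed for 24 h at 37 °C to serially diluted compound in 0.1% DMSO.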

MK2 [2] = target: T1, MK2; assay: MK2 degradation in human THP-1 monocytic cells (MSD, 24 h); format: cell-based; set-up: endogenous in cells; key to MK2 MSD THP-1 degradation 24 h GMean External Abs DC50: A (<0.001 μM); B (0.001-0.01 μM); C (0.01-0.1 μM); D (>0.1 μM); —: “-”=not tested or inactive; details: for Dmax: THP-1, THP-1 cells; for MK2 MSD THP-1 degradation 24 h GMean External Abs DC50 / DC50: THP-1 cells; for DC50: read-out: MK2 MSD THP-1 degradation 24 h GMean External Abs DC50
Method in brief: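 Readout: residual MK2 protein in THP-1 lysates, measured by MSD electrochemiluminescence sandwich assay after 24 h compound exposure (≤10-point serial dilutions, 0.1% DMSO, 37 °C). Curves normalised between lysis-buffer and DMSO-cell signals; DC50 by 4-parameter logistic fit.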

| Compound | MK2 MSD SW1353 degradation 24 h GMean External Abs DC50 (MK2 [1]) | Dmax (MK2 [1]) [%] | Dmax (MK2 [2]) [%] | MK2 MSD THP-1 degradation 24 h GMean External Abs DC50 (MK2 [2]) | DC50 (MK2 [1]) [nM] | DC50 (MK2 [2]) [nM] | MK2 MSD SW 1353 24 h Dmax % (MK2 [1]) |
| --- | --- | --- | --- | --- | --- | --- | --- |
| C[C@@H]1CNc2c(sc3ccc4nc(-c5ccc(N6CCN(CCCCOc7ccc(C8CCC(=O)NC8=O)cc7)CC6)nc5)ccc4c23)C(=O)N1 (stereo partly drawn) [Compound I-183] | — | > 75 | > 75 | — |  |  |  |
| C[C@@H]1CNc2c(sc3ccc4nc(N5CCN(CC6CCN(c7ccc(-c8ccc9c(c8)n(C)c(=O)n9C8CCC(=O)NC8=O)cc7)CC6)CC5)ccc4c23)C(=O)N1 (stereo partly drawn) [Compound I-184] | — | > 75 | > 75 | — |  |  |  |
| C[C@@H]1CNc2c(sc3ccc4nc(N5CCC6(CC5)CC(N5CCN(c7ccc8c(c7)n(C)c(=O)n8C7CCC(=O)NC7=O)CC5)C6)ccc4c23)C(=O)N1 (stereo partly drawn) [Compound I-185] | — | > 75 | > 75 | — |  |  |  |
| C#Cc1cc(-c2ccc3c(ccc4sc5c(c43)NC[C@@H](C)NC5=O)n2)cc(N2CCN(CC3CCN(c4ccc5c(c4)n(C)c(=O)n5C4CCC(=O)NC4=O)CC3)CC2)c1 (stereo partly drawn) [Compound I-186] | — | > 75 | > 75 | — |  |  |  |
| C[C@@H]1CNc2c(sc3ccc4nc(N5C[C@@H]6C[C@H]5CN6CC5CCN(c6cccc7c6n(C)c(=O)n7C6CCC(=O)NC6=O)CC5)ccc4c23)C(=O)N1 (stereo partly drawn) [Compound I-187] |  | < 50 | < 50 |  | > 100 | > 100 |  |
| O=C1CCN(c2cncc3c(N4CC(CN5CCN(c6ccc(-c7cc(-c8cc9c([nH]8)C8(CC8)CNC9=O)ccn7)cc6)CC5)C4)cccc23)C(=O)N1 [Compound I-188] |  | > 75 | > 75 |  | 1 to 10 | 1 to 10 |  |
| Cn1c(=O)n(C2CCC(=O)NC2=O)c2ccc(N3CC(CN4CCN(c5ccc(-c6cc(-c7cc8c([nH]7)C7(CC7)CNC8=O)ccn6)cc5)CC4)C3)cc21 (stereo not drawn) [Compound I-189] |  | > 75 | > 75 |  | < 1 | < 1 |  |
| Cn1c(=O)n(C2CCC(=O)NC2=O)c2cccc(N3CC(CN4CCN(c5ccc(-c6cc(-c7cc8c([nH]7)C7(CC7)CNC8=O)ccn6)cc5)CC4)C3)c21 (stereo not drawn) [Compound I-190] |  | > 75 | > 75 |  | < 1 | < 1 |  |
| Cn1c(=O)n(C2CCC(=O)NC2=O)c2cccc(CCCN3CCN(c4ccc(-c5cc(-c6cc7c([nH]6)C6(CCCC6)CNC7=O)ccn5)cc4)CC3)c21 (stereo not drawn) [Compound I-191] |  | > 75 | 50 to 75 |  | 1 to 10 | 10 to 100 |  |
| Cn1c(=O)n(C2CCC(=O)NC2=O)c2ccc(N3CCC(CN4CCN(c5ccc(-c6cc(-c7cc8c([nH]7)C7(CCCC7)CNC8=O)ccn6)cc5)CC4)CC3)cc21 (stereo not drawn) [Compound I-192] |  | > 75 | > 75 |  | < 1 | < 1 |  |
| Cn1c(=O)n(C2CCC(=O)NC2=O)c2ccc(N3CCC(CN4CCN(c5cc(-c6cc(-c7cc8c([nH]7)CCNC8=O)ccn6)cc(C6CCCC6)c5)CC4)CC3)cc21 (stereo not drawn) [Compound I-193] |  |  | < 50 |  | > 100 | > 100 | — |
| Cc1cc(-c2cc(-c3cc4c([nH]3)C3(CC3)CNC4=O)ccn2)cc(C)c1N1CCN(CC2CCN(c3ccc4c(c3)n(C)c(=O)n4C3CCC(=O)NC3=O)CC2)CC1 (stereo not drawn) [Compound I-194] |  | > 75 | > 75 |  | < 1 | < 1 |  |
| C[C@@H]1CNc2c(sc3ccc4nc(-c5ccc(N6CCN(C[C@H]7CCN(c8ccc9c(c8)n(C)c(=O)n9C8CCC(=O)NC8=O)C7)CC6)cc5)ccc4c23)C(=O)N1 (stereo partly drawn) [Compound I-195] |  | > 75 | > 75 |  | < 1 | < 1 |  |
| C[C@@H]1CNc2c(sc3ccc4nc(N5CCN(CC6CCN(c7cccc8c7n(C)c(=O)n8C7CCC(=O)NC7=O)CC6)CC5)ccc4c23)C(=O)N1 (stereo partly drawn) [Compound I-196] | — |  | > 75 |  |  | 1 to 10 | — |
| O=C1CCN(c2cncc3c(N4CC(CN5CCN(c6ccc(-c7cc(-c8cc9c([nH]8)CCNC9=O)ccn7)cc6)CC5)C4)cccc23)C(=O)N1 [Compound I-197] | — |  | > 75 |  |  | 10 to 100 | — |
| O=C1CCN(c2cncc3c(N4CCN(CC5CCN(c6ccc(-c7cc(-c8cc9c([nH]8)CCNC9=O)ccn7)cc6)CC5)CC4)cccc23)C(=O)N1 [Compound I-198] | — |  | > 75 |  |  | 10 to 100 | — |
| Cn1c(=O)n(C2CCC(=O)NC2=O)c2cccc(CCCN3CCN(c4ccc(-c5cc(-c6cc7c([nH]6)C6(CC6)CNC7=O)ccn5)cn4)CC3)c21 (stereo not drawn) [Compound I-199] | — | > 75 | > 75 |  |  | 1 to 10 |  |
| Cn1c(=O)n(C2CCC(=O)NC2=O)c2cccc(CCN3CCN(c4ccc(-c5cc(-c6cc7c([nH]6)C6(CC6)CNC7=O)ccn5)cn4)CC3)c21 (stereo not drawn) [Compound I-200] | — | > 75 | > 75 |  |  | 1 to 10 |  |
| Cn1c(=O)n(C2CCC(=O)NC2=O)c2ccc(CCN3CCN(c4ccc(-c5cc(-c6cc7c([nH]6)C6(CC6)CNC7=O)ccn5)cn4)CC3)cc21 (stereo not drawn) [Compound I-201] | — |  | < 50 |  |  | > 100 | — |
| Cn1c(=O)n(C2CCC(=O)NC2=O)c2ccc(CCN3CCN(c4ccc(-c5cc(-c6cc7c([nH]6)C6(CC6)CNC7=O)ccn5)cc4)CC3)cc21 (stereo not drawn) [Compound I-202] | — |  | < 50 |  |  | > 100 | — |
| Cn1c(=O)n(C2CCC(=O)NC2=O)c2cccc(CCN3CCN(c4ccc(-c5cc(-c6cc7c([nH]6)C6(CC6)CNC7=O)ccn5)cc4)CC3)c21 (stereo not drawn) [Compound I-203] | — | > 75 | > 75 |  |  | 1 to 10 |  |
| Cn1c(=O)n(C2CCC(=O)NC2=O)c2cccc(CCCN3CCN(c4ccc(-c5cc(-c6cc7c([nH]6)C6(CCC6)CNC7=O)ccn5)cc4)CC3)c21 (stereo not drawn) [Compound I-204] | — |  | > 75 |  |  | 1 to 10 | — |
| Cn1c(=O)n(C2CCC(=O)NC2=O)c2ccc(N3CCC(CN4CCN(c5ccc(-c6cc(-c7cc8c([nH]7)C7(CCC7)CNC8=O)ccn6)cc5)CC4)CC3)cc21 (stereo not drawn) [Compound I-205] | — |  | > 75 |  |  | < 1 | — |
| Cn1c(=O)n(C2CCC(=O)NC2=O)c2ccc(N3CCC(CN4CCN(c5cc(-c6ccc7cc[nH]c7c6)cc(-c6cc(-c7cc8c([nH]7)CCNC8=O)ccn6)c5)CC4)CC3)cc21 (stereo not drawn) [Compound I-206] | — |  | 50 to 75 |  |  | 1 to 10 | — |
| Cc1cc(-c2cc(-c3cc4c([nH]3)CCNC4=O)ccn2)cc(C)c1N1CCN(CC2CCN(c3ccc4c(c3)n(C)c(=O)n4C3CCC(=O)NC3=O)CC2)CC1 (stereo not drawn) [Compound I-207] | — | > 75 | 50 to 75 |  |  | 1 to 10 |  |
| C[C@@H]1Cc2oc(-c3ccnc(-c4ccc(N5CCN(CC6CCN(c7ccc8c(c7)n(C)c(=O)n8C7CCC(=O)NC7=O)CC6)CC5)cc4)c3)cc2C(=O)N1 (stereo partly drawn) [Compound I-208] |  | < 50 | < 50 |  | > 100 | > 100 |  |
| C[C@@H]1Cc2oc(-c3ccnc(-c4ccc(N5CCN(CC6CCN(c7ccc8c(c7)n(C)c(=O)n8C7CCC(=O)NC7=O)CC6)CC5)nc4)c3)cc2C(=O)N1 (stereo partly drawn) [Compound I-209] | — | < 50 | < 50 |  |  | > 100 |  |
| O=C1CCN(c2cncc3c(N4CCC(CN5CCN(c6ccc(-c7cc(-c8cc9c([nH]8)CCNC9=O)ccn7)cc6)CC5)CC4)cccc23)C(=O)N1 [Compound I-210] |  | > 75 | 50 to 75 |  | 10 to 100 | 10 to 100 |  |
| O=C1CCN(c2cncc3c(N4CCC(CN5CCN(c6ccc(-c7cc(-c8cc9c([nH]8)C8(CC8)CNC9=O)ccn7)cc6)CC5)CC4)cccc23)C(=O)N1 [Compound I-211] |  | > 75 | 50 to 75 |  | 10 to 100 | 10 to 100 |  |
| O=C1CCN(c2cncc3c(N4CCN(CC5CCN(c6ccc(-c7cc(-c8cc9c([nH]8)C8(CC8)CNC9=O)ccn7)cc6)CC5)CC4)cccc23)C(=O)N1 [Compound I-212] |  | > 75 | > 75 |  | 10 to 100 | 10 to 100 |  |
